pIC50: −log10 of the molar value. Where two headings read alike, the source gives them in different places.
Assays:
PC3 = test: Tumor cell growth inhibitory activity; type: cell-based; conditions: Homo sapiens, PC-3
MDA-MB-231 = test: Tumor cell growth inhibition, cell viability assay (Cell Titer Glo), 72 h; conditions: Homo sapiens
HT29 = test: as above; type: cell-based; conditions: Homo sapiens, HT-29; for pIC50: Table 3, colon adenocarcinoma, 72 hours of treatment, read-out: HT29 (IC50)
Description: (§1) The potency to inhibit tumor cell growth was determined by calculating IC50 values using a standard cell viability assay (Cell Titer Glo, Promega Corp,) following 72 hours of treatment. The human colon tumor cell lines, HT-29, SW480, HCT116, and Colo 741 were derived from colon adenocarcinomas, while LT97 is derived from an adenoma. Fetal human colonocytes (FHC) are representative of normal colonocytes. The lack of effect inhibiting cyclooxygenases 1 and 2 (COX-1 and -2) is also shown.

[1] = tested on: Fetal human colonocytes (FHC); test: Cell growth inhibition, cell viability assay (Cell Titer Glo), 72 h; type: cell-based; conditions: Table 3, normal colonocytes, 72 hours of treatment
Description: as §1

HCT116 = test: Tumor cell growth inhibition, cell viability assay (Cell Titer Glo), 72 h; type: cell-based; conditions: Homo sapiens, HCT-116; for pIC50: Table 3, colon adenocarcinoma, 72 hours of treatment, read-out: HCT116 (IC50); for IC50: Table 1, colon, read-out: Colon tumor cell growth inhibitory activity (IC50, μM) HCT116
Description: as §1

LT97 = test: as above; type: cell-based; conditions: Homo sapiens; Table 3; adenoma; 72 hours of treatment
Description: as §1

Colo741 = test: as above; type: cell-based; conditions: Homo sapiens, COLO-741; Table 3; colon adenocarcinoma; 72 hours of treatment
Description: as §1

SW480 = test: as above; type: cell-based; conditions: Homo sapiens; for pIC50: Table 3, colon adenocarcinoma, 72 hours of treatment, read-out: SW480 (IC50); for IC50: Table 1, colon, read-out: Colon tumor cell growth inhibitory activity (IC50, μM) SW480
Description: as §1

COX-2 = molecular target: T1, COX-2 (Homo sapiens, UniProt P35354); test: COX inhibition, colorimetric assay with recombinant COX enzymes
T1 sequence (P35354 18-604): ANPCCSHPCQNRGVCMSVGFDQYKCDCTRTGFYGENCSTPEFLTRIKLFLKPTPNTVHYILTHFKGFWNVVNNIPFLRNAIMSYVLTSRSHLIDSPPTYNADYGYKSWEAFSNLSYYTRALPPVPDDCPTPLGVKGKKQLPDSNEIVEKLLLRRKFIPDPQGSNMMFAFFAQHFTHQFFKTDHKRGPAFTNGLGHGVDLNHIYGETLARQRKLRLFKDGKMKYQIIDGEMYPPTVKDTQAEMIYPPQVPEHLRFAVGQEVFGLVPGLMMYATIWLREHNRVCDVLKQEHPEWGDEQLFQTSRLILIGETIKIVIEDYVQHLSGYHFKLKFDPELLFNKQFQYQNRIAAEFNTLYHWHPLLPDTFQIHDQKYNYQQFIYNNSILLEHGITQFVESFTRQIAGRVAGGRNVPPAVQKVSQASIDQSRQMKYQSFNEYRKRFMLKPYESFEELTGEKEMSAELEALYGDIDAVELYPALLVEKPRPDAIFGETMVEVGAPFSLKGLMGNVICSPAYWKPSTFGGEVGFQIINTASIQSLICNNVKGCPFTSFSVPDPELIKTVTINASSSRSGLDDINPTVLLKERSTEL
Description: (§2) The enzyme activity was measured using a colorimetric assay using recombinant COX enzymes. […] The growth inhibitory activity was determined following 72 hours of treatment using a standard cell viability assay (Cell Titer Glo, Promega Corp).

COX-1 = COX-1 (Homo sapiens, UniProt P23219); test: as above
Chain of COX-1 (P23219 24-599): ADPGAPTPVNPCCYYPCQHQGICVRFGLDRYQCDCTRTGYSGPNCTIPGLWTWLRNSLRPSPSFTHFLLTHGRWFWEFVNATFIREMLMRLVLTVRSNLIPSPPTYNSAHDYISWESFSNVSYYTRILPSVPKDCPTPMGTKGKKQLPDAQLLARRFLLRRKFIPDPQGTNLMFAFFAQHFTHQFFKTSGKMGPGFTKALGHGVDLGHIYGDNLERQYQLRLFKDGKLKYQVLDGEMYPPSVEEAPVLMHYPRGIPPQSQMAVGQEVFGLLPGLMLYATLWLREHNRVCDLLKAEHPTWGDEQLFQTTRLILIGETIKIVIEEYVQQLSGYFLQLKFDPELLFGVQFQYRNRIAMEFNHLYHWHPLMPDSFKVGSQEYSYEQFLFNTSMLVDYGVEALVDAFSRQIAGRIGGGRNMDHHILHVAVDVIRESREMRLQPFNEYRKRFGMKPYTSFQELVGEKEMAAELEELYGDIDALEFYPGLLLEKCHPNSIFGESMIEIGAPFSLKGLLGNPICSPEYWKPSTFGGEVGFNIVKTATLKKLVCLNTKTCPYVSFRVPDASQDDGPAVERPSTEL
Description: as §2

SKBR3 = test: Breast tumor cell growth inhibitory activity; type: cell-based; conditions: Homo sapiens, SK-BR-3; Table 1, breast
MCF-7 = test: Breast tumor cell growth inhibitory activity; type: cell-based; conditions: Homo sapiens, MCF7; Table 1, breast
[2] = Table 1, compounds 10-13, read-out: Tumor cell growth inhibitory activity (IC50, μM) PC3
[3] = scheme table, read-out: IC50 (μM) PC3
[4] = MDA-MB-231, read-out: IC50 (μM) MDA-MB-231
[5] = MDA-MB-231, read-out: Tumor cell growth inhibitory activity (IC50, μM) MDA-MB-231 (breast)
[6] = Table 1, compounds 10-13, read-out: Tumor cell growth inhibitory activity (IC50, μM) HT29
[7] = scheme table, read-out: IC50 (μM) HT29
[8] = MDA-MB-231, read-out: Breast tumor cell growth inhibitory activity (IC50, μM) MDA-MB-231
[9] = Table 1, colon, read-out: Colon tumor cell growth inhibitory activity (IC50, μM) HT29

Structure (SMILES) | IC50 (PC3; [2]) [µM] | IC50 (PC3; [3]) [µM] | IC50 (MDA-MB-231; [4]) [µM] | IC50 (MDA-MB-231; [5]) [µM] | IC50 (HT29; [6]) [µM] | IC50 (HT29; [7]) [µM] | pIC50 [1] | pIC50 (HCT116) | pIC50 (LT97) | pIC50 (Colo741) | pIC50 (SW480) | pIC50 (HT29) | IC50 (MDA-MB-231; [8]) [µM] | IC50 (HT29; [9]) [µM] | IC50 (SKBR3) [µM] | IC50 (HCT116) [µM] | IC50 (SW480) [µM] | IC50 (MCF-7) [µM] | further results
CSc1ccc(/C=C2/C(C)=C(CN(Cc3ccncc3)Cc3ccncc3)c3cc(F)ccc32)cc1 [Compound 12, (Z)-1-(5-Fluoro-2-methyl-1-(4-(methylthio)benzylidene)-1H-inden-3-yl)-N,N-bis(pyridin-4-ylmethyl)methanamine] | 12.7 | 12.7 | 9.5 | 9.5 | 10.8 | 10.8 |  |  |  |  |  |  |  |  |  |  |  |  | 
COc1cc(/C=C2/C(C)=C(CN)c3cc(F)ccc32)cc(OC)c1OC [Compound 11, (Z)-(5-Fluoro-2-methyl-1-(3,4,5-trimethoxybenzylidene)-1H-inden-3-yl)methanamine] | 29.7 | 29.7 | 15.3 | 15.3 | 14.6 | 14.6 |  |  |  |  |  |  |  |  |  |  |  |  | 
COc1cc(/C=C2/C(C)=C(CN(Cc3ccncc3)Cc3ccncc3)c3cc(F)ccc32)cc(OC)c1OC [Compound 13, (Z)-1-(5-Fluoro-2-methyl-1-(3,4,5-trimethoxybenzylidene)-1H-inden-3-yl)-N,N-bis(pyridin-4-ylmethyl)methanamine] | 9.09 | 9.09 | 8.21 | 8.21 | 9.83 | 9.83 |  |  |  |  |  |  |  |  |  |  |  |  | melting point: 66.4 °C
CSc1ccc(/C=C2/C(C)=C(CC(=O)O)c3cc(F)ccc32)cc1 [Sulindac sulfide, reference compound] |  |  |  |  |  |  | < 3.70 | 4.13 | 4.42 | 3.82 | 4.07 | 4.13 |  |  |  |  |  |  | 
CC1=C(CCNCc2ccco2)c2cc(F)ccc2/C1=C\c1ccc([S+](C)[O-])cc1 (centres unmarked) [Compound 7] |  |  |  |  |  |  |  |  |  |  |  |  | 3.7 | 2.3 |  |  |  |  | 
CC1=C(CCNCc2ccccc2)c2cc(F)ccc2/C1=C\c1ccc(S(C)(=O)=O)cc1 [Compound 9] |  |  |  |  |  |  | 4.95 | 5.19 | 5.05 | 5.23 | 5.27 | 5.69 |  | 1.8 |  |  |  |  | pIC50 (COX-2): < 4.00; pIC50 (COX-1): < 4.00
CSc1ccc(/C=C2/C(C)=C(CN)c3cc(F)ccc32)cc1 [Compound 10, (Z)-(5-Fluoro-2-methyl-1-(4-(methylthio)benzylidene)-1H-inden-3-yl)methanamine] | 33.6 | 33.6 | 19.3 | 19.3 | 16 | 16 |  |  |  |  |  |  |  |  |  |  |  |  | 
CSc1ccc(/C=C2/C(C)=C(CCNCCN3CCCCC3)c3cc(F)ccc32)cc1 [Compound 3] |  |  |  |  |  |  |  |  |  |  |  |  | 5.3 | 3 | 4.8 | 3.8 | 5.4 | 6.4 | 
CSc1ccc(/C=C2/C(C)=C(CCN)c3cc(F)ccc32)cc1 [Compound 4] |  |  |  |  |  |  |  |  |  |  |  |  | 5.5 | 4.1 | 3.9 | 4.9 | 4.1 | 5.9 | 
CSc1ccc(/C=C2/C(C)=C(CCNCc3ccccc3)c3cc(F)ccc32)cc1 [Compound 1] |  |  |  |  |  |  | 5.11 | 5.31 | 5.17 | 5.05 | 5.48 | 5.57 | 5.8 | 2.7 | 3.4 | 4.9 | 3.3 | 6.8 | pIC50 (COX-2): < 3.70; pIC50 (COX-1): < 3.70
